# Data: US11306078B2, “Piperidine CXCR7 receptor modulators” (IDORSIA PHARMACEUTICALS LTD., priority 2016, dated 2022)
# Molecular target: human chemokine receptor CXCR7 (Homo sapiens (Human), UniProt P25106)
# Assay: Tango CXCR7-bla U2OS beta-arrestin recruitment assay (beta-lactamase reporter, FRET), antagonism of CXCL12/SDF1-α;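 further: compounds preincubated 15 min before CXCL12 addition, then 22 h at 37 °C, FRET emission ratio read with CCF4-AM substrate after 2 h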
# Format: cell-based
# Conditions: antagonistic effect on CXCR7; Tango CXCR7-bla U2OS cells, CXCL12/SDF1-α at its EC80
# human chemokine receptor CXCR7, sequence (P25106 whole entry): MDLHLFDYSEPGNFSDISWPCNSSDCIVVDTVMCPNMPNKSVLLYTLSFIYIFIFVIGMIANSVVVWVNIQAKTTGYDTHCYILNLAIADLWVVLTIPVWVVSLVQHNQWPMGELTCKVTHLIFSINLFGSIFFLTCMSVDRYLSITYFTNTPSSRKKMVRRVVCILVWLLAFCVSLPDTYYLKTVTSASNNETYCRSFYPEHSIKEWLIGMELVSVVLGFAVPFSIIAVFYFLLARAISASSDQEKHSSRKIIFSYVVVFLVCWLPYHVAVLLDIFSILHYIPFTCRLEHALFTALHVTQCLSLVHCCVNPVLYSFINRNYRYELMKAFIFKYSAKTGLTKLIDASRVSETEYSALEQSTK
row,IC50,SMILES
1,178 nM,"O=C(N[C@@H]1CCN(CC2CC2)C[C@H]1C(=O)NC1(c2ccc(F)cn2)CC1)c1cc(-c2c(F)cc(F)cc2F)on1 (racemic) [Example 1.144, rac-(3R*,4R*)-1-Cyclopropylmethyl-4-{[5-(2,4,6-trifluoro-phenyl)-isoxazole-3-carbonyl]-amino}-piperidine-3-carboxylic acid [1-(5-fluoro-pyridin-2-yl)-cyclopropyl]-amide]"
2,276 nM,"CN(C)C(=O)[C@@H]1CN(CC2CC2)CC[C@H]1NC(=O)c1cc(-c2ccc(F)cc2F)no1 (racemic) [Example 1.149, rac-(3R*,4R*)-1-Cyclopropylmethyl-4-{[3-(2,4-difluoro-phenyl)-isoxazole-5-carbonyl]-amino}-piperidine-3-carboxylic acid dimethylamide]"
3,554 nM,"COCC(C)(C)NC(=O)[C@@H]1CN(CC2CC2)CC[C@H]1NC(=O)c1cc(-c2ccc(F)cc2F)no1 (racemic) [Example 1.151, rac-(3R*,4R*)-1-Cyclopropylmethyl-4-{[3-(2,4-difluoro-phenyl)-isoxazole-5-carbonyl]-amino}-piperidine-3-carboxylic acid (2-methoxy-1,1-dimethyl-ethyl)-amide]"
4,569 nM,"COCC(C)(C)NC(=O)[C@@H]1CN(C2CCCCC2)CC[C@H]1NC(=O)c1noc(-c2ccc(F)cc2F)n1 (racemic) [Example 1.152, rac-(3R*,4R*)-1-Cyclohexyl-4-{[5-(2,4-difluoro-phenyl)-[1,2,4]oxadiazole-3-carbonyl]-amino}-piperidine-3-carboxylic acid (2-methoxy-1,1-dimethyl-ethyl)-amide]"
5,803 nM,"COCC(C)(C)NC(=O)[C@@H]1CN(CC2CC2)CC[C@H]1NC(=O)c1noc(-c2ccc(F)cc2F)n1 (racemic) [Example 1.153, rac-(3R*,4R*)-1-Cyclopropylmethyl-4-{[5-(2,4-difluoro-phenyl)-[1,2,4]oxadiazole-3-carbonyl]-amino}-piperidine-3-carboxylic acid (2-methoxy-1,1-dimethyl-ethyl)-amide]"
6,953 nM,"O=C(N[C@@H]1CCN(CC2CC2)C[C@H]1C(=O)NC1(c2ccc(F)cn2)CC1)c1cc(-c2ccc(F)cc2F)no1 (racemic) [Example 1.163, rac-(3R*,4R*)-1-Cyclopropylmethyl-4-{[3-(2,4-difluoro-phenyl)-isoxazole-5-carbonyl]-amino}-piperidine-3-carboxylic acid [1-(5-fluoro-pyridin-2-yl)-cyclopropyl]-amide]"
7,92 nM,"O=C(N[C@@H]1CCN(C2CCCCC2)C[C@H]1C(=O)NC1(c2ccccn2)CC1)c1cn(-c2ccc(F)cc2F)nn1 (racemic) [Example 1.165, rac-(3R*,4R*)-1-Cyclohexyl-4-{[1-(2,4-difluoro-phenyl)-1H-[1,2,3]triazole-4-carbonyl]-amino}-piperidine-3-carboxylic acid (1-pyridin-2-yl-cyclopropyl)-amide]"
8,52 nM,"O=C(N[C@@H]1CCN(C2CCCC2)C[C@H]1C(=O)NC1(c2ccccn2)CC1)c1cn(-c2ccc(F)cc2F)nn1 (racemic) [Example 1.166, rac-(3R*,4R*)-1-Cyclopentyl-4-{[1-(2,4-difluoro-phenyl)-1H-[1,2,3]triazole-4-carbonyl]-amino}-piperidine-3-carboxylic acid (1-pyridin-2-yl-cyclopropyl)-amide]"
9,134 nM,"O=C(N[C@@H]1CCN(CC2CC2)C[C@H]1C(=O)NC1(c2ccccn2)CC1)c1cn(-c2ccc(F)cc2F)nn1 (racemic) [Example 1.167, rac-(3R*,4R*)-1-Cyclopropylmethyl-4-{[1-(2,4-difluoro-phenyl)-1H-[1,2,3]triazole-4-carbonyl]-amino}-piperidine-3-carboxylic acid (1-pyridin-2-yl-cyclopropyl)-amide]"
10,5 nM,"O=C(N[C@@H]1CCN(C2CCCCC2)C[C@H]1C(=O)NC1(c2ccccn2)CC1)c1cc(-c2c(F)cc(F)cc2F)on1 (racemic) [Example 1.169, rac-(3R*,4R*)-1-Cyclohexyl-4-{[5-(2,4,6-trifluoro-phenyl)-isoxazole-3-carbonyl]-amino}-piperidine-3-carboxylic acid (1-pyridin-2-yl-cyclopropyl)-amide]"
11,16 nM,"O=C(N[C@@H]1CCN(CC2CC2)C[C@H]1C(=O)NC1(c2ccccn2)CC1)c1cc(-c2c(F)cc(F)cc2F)on1 (racemic) [Example 1.171, rac-(3R*,4R*)-1-Cyclopropylmethyl-4-{[5-(2,4,6-trifluoro-phenyl)-isoxazole-3-carbonyl]-amino}-piperidine-3-carboxylic acid (1-pyridin-2-yl-cyclopropyl)-amide]"
12,110 nM,"O=C(N[C@@H]1CCN(C2CCCC2)C[C@H]1C(=O)NC1(c2ccccn2)CC1)c1cc(-c2ccc(F)cc2F)no1 (racemic) [Example 1.173, rac-(3R*,4R*)-1-Cyclopentyl-4-{[3-(2,4-difluoro-phenyl)-isoxazole-5-carbonyl]-amino}-piperidine-3-carboxylic acid (1-pyridin-2-yl-cyclopropyl)-amide]"
13,36 nM,"O=C(N[C@@H]1CCN(CC2CC2)C[C@H]1C(=O)NC1(c2ccccn2)CC1)c1cc(-c2ccc(F)cc2F)no1 (racemic) [Example 1.174, rac-(3R*,4R*)-1-Cyclopropylmethyl-4-{[3-(2,4-difluoro-phenyl)-isoxazole-5-carbonyl]-amino}-piperidine-3-carboxylic acid (1-pyridin-2-yl-cyclopropyl)-amide]"
14,6 nM,"O=C(N[C@@H]1CCN(C2CCCC2)C[C@H]1C(=O)NC1(c2ncccn2)CC1)c1cc(-c2c(F)cc(F)cc2F)on1 (racemic) [Example 1.176, rac-(3R*,4R*)-1-Cyclopentyl-4-{[5-(2,4,6-trifluoro-phenyl)-isoxazole-3-carbonyl]-amino}-piperidine-3-carboxylic acid (1-pyrimidin-2-yl-cyclopropyl)-amide]"
15,5 nM,"O=C(N[C@@H]1CCN(CC2CC2)C[C@H]1C(=O)NC1(c2ncccn2)CC1)c1cc(-c2c(F)cc(F)cc2F)on1 (racemic) [Example 1.177, rac-(3R*,4R*)-1-Cyclopropylmethyl-4-{[5-(2,4,6-trifluoro-phenyl)-isoxazole-3-carbonyl]-amino}-piperidine-3-carboxylic acid (1-pyrimidin-2-yl-cyclopropyl)-amide]"
16,79 nM,"CC(C)(C#N)NC(=O)[C@@H]1CN(C2CCCCC2)CC[C@H]1NC(=O)c1cc(-c2ccc(F)cc2F)on1 (racemic) [Example 1.183, rac-(3R*,4R*)-1-Cyclohexyl-4-{[5-(2,4-difluoro-phenyl)-isoxazole-3-carbonyl]-amino}-piperidine-3-carboxylic acid (cyano-dimethyl-methyl)-amide]"
17,36 nM,"O=C(N[C@@H]1CCN(CC2CC2)C[C@H]1C(=O)NC1(c2ncccn2)CC1)c1cc(-c2ccc(Cl)cc2Cl)on1 (racemic) [Example 1.189, rac-(3R*,4R*)-1-Cyclopropylmethyl-4-{[5-(2,4-dichloro-phenyl)-isoxazole-3-carbonyl]-amino}-piperidine-3-carboxylic acid (1-pyrimidin-2-yl-cyclopropyl)-amide]"
18,186 nM,"O=C(N[C@@H]1CCN(CC2CC2)C[C@H]1C(=O)NC1(c2ncccn2)CC1)c1cc(-c2c(F)cccc2F)on1 (racemic) [Example 1.191, rac-(3R*,4R*)-1-Cyclopropylmethyl-4-{[5-(2,6-difluoro-phenyl)-isoxazole-3-carbonyl]-amino}-piperidine-3-carboxylic acid (1-pyrimidin-2-yl-cyclopropyl)-amide]"
19,389 nM,"O=C(N[C@@H]1CCN(CC2CC2)C[C@H]1C(=O)NC1(c2ncccn2)CC1)c1cc(-c2ccc(C(F)(F)F)cc2)on1 (racemic) [Example 1.192, rac-(3R*,4R*)-1-Cyclopropylmethyl-4-{[5-(4-trifluoromethyl-phenyl)-isoxazole-3-carbonyl]-amino}-piperidine-3-carboxylic acid (1-pyrimidin-2-yl-cyclopropyl)-amide]"
20,759 nM,"COc1ccc(-c2cc(C(=O)N[C@@H]3CCN(CC4CC4)C[C@H]3C(=O)NC3(c4ncccn4)CC3)no2)c(F)c1 (racemic) [Example 1.195, rac-(3R*,4R*)-1-Cyclopropylmethyl-4-{[5-(2-fluoro-4-methoxy-phenyl)-isoxazole-3-carbonyl]-amino}-piperidine-3-carboxylic acid (1-pyrimidin-2-yl-cyclopropyl)-amide]"
21,575 nM,"O=C(N[C@@H]1CCN(CC2CC2)C[C@H]1C(=O)NC1(c2ncccn2)CC1)c1cc(-c2ccc(F)cn2)on1 (racemic) [Example 1.196, rac-(3R*,4R*)-1-Cyclopropylmethyl-4-{[5-(5-fluoro-pyridin-2-yl)-isoxazole-3-carbonyl]-amino}-piperidine-3-carboxylic acid (1-pyrimidin-2-yl-cyclopropyl)-amide]"
22,11 nM,"O=C(N[C@@H]1CCN(CC2CC2)C[C@H]1C(=O)NC1(c2ccccn2)CCC1)c1cc(-c2ccc(F)cc2F)on1 (racemic) [Example 1.197, rac-(3R*,4R*)-1-Cyclopropylmethyl-4-{[5-(2,4-difluoro-phenyl)-isoxazole-3-carbonyl]-amino}-piperidine-3-carboxylic acid (1-pyridin-2-yl-cyclobutyl)-amide]"
23,52 nM,"COc1ccccc1C1(NC(=O)[C@@H]2CN(CC3CC3)CC[C@H]2NC(=O)c2cc(-c3ccc(F)cc3F)on2)CC1 (racemic) [Example 1.198, rac-(3R*,4R*)-1-Cyclopropylmethyl-4-{[5-(2,4-difluoro-phenyl)-isoxazole-3-carbonyl]-amino}-piperidine-3-carboxylic acid [1-(2-methoxy-phenyl)-cyclopropyl]-amide]"

row,SMILES,IC50
1,"O=C(N[C@@H]1CCN(CC2CC2)C[C@H]1C(=O)NC1(c2ncccn2)CC1)c1cc(-c2cccc(C(F)(F)F)c2)on1 (racemic) [Example 1.193, rac-(3R*,4R*)-1-Cyclopropylmethyl-4-{[5-(3-trifluoromethyl-phenyl)-isoxazole-3-carbonyl]-amino}-piperidine-3-carboxylic acid (1-pyrimidin-2-yl-cyclopropyl)-amide]",191 nM
